According to patent US5256685A, “Mitomycin derivatives” (Kyowa Hakko Kogyo Co., Ltd., priority 1991, dated 1993):

How the values were obtained:
Sarcoma 180 solid tumor = assay: Anti-tumor activity to sarcoma 180 solid tumor; type: in vivo; settings: Mus musculus, Sarcoma-180, iv, 168 h; dose showing T/C=0.5 (tumor volume, 7 days after implantation); single i.v. injection 24 hours after s.c. implantation; male ddY mice
Method: Anti-tumor activity to sarcoma 180 solid tumor
5×10^6 Sarcoma 180 cells were abdominally implanted into a ddY mouse and the cells were collected from the ascites of the mouse 7 days after the implantation. The cells were washed once with a sterilized physiological saline solution and then suspended in a sterilized physiological saline solution to prepare a cell suspension of 5×10^7 cells/ml.
0.1 ml of the cell suspension was subcutaneously implanted into the right axillary space of male ddY mice weighing 20±2 g.
A test compound was dissolved in a physiological saline solution or a polyoxyethylene sorbitan monolaurate-containing physiological saline solution, and 0.1 to 0.2 ml of the solution was intravenously injected to 5 mice as one group 24 hours after the implantation of the tumor cells.
The anti-tumor activity of the test compound was determined by measuring the major axis (a) and the minor axis (b) of the tumor 7 days after the implantation of tumor cells, and the value of (a×b^2 /2), which corresponds to the volume of the tumor, was calculated. The intended anti-tumor activity is represented by a ratio of T/C, in which C indicates the tumor volume of mice of the control group to which no test compound was administered and T indicates the tumor volume of mice of the test group to which the test compound was administered. T/C at each dose given was plotted on the vertical axis and a dose is shown by a logarithmic scale on the horizontal axis. The relationship between the dose and T/C was determined to be a straight line by the least squares method. From the regression formula of the straight line thus obtained, the dose showing T/C=0.5 was calculated to give ED50.

Acute toxicity = settings: mouse, in vivo, iv; i.v. once, ddY mice, observed 14 days; Behrens-Kaerber's method
Method: A test compound was intravenously injected once to five ddY mice as one group. […] LD50 was calculated from the death rate of each group to which the test compound was administered according to the Behrens-Kaerber's method.

HeLaS3 cells = assay: Growth inhibition test on HeLaS3 cells; type: cell-based; settings: Homo sapiens, HeLa S3, 1 h exposure, then 72 h incubation at 37° C., Neutral Red
Method: Growth inhibition test on HeLaS3 cells
HeLaS3 cells were suspended in an MEM medium containing 10% fetal calf serum and 2 mM glutamine at a density of 3×10^4 cells/ml, and 0.1 ml of the cell suspension was put into each well of a 96-well microtiter plate.
After culturing at 37° C. overnight in a carbon dioxide gas incubator, 0.05 ml each of a test compound appropriately diluted with the medium was added to each well. The cells were further cultured for an hour in the carbon dioxide gas incubator, and the culture supernatant was removed. The residue was washed once with a phosphate buffered saline [PBS (-)] and 0.1 ml each of a fresh medium was added to each well. The cells were further incubated at 37° C. for 72 hours in the carbon dioxide gas incubator. After removal of the culture supernatant, 0.1 ml each of the culture medium containing 0.02% Neutral Red was added to each well, and the cells were further incubated at 37° C. for an hour in the carbon dioxide gas incubator to stain the cells.
After removal of the culture supernatant, each well was washed once with a physiological saline, and the dye was extracted with 0.001N HCl/30% ethanol. Absorbance of the extract at 550 nm was measured with a microplate reader. The cell growth inhibition percentage was calculated according to the following equation from the absorbance of the extract of the cells treated with the test compound in various concentrations and that of the untreated cells. [formula]
From the cell growth inhibition percentage thus obtained, the concentration of the test compound which inhibits cell growth by 50%, i.e. IC50 value, was determined.

Structure (SMILES)	ED50 (Sarcoma 180 solid tumor)	LD50 at 336 h (Acute toxicity)	IC50 (HeLaS3 cells)
CO[C@@]12[C@H](COC(N)=O)C3=C(C(=O)C4=C(OC5=C(C4)C(=O)CC(C)C5)C3=O)N1C[C@@H]1N[C@@H]12 (single isomer, unassigned) [Compound 36]	1.3 mg/kg	4.4 mg/kg	
COc1ccc(C2CC(=O)C3=C(C2)OC2=C(C3)C(=O)C3=C(C2=O)[C@@H](COC(N)=O)[C@@]2(OC)[C@H]4N[C@H]4CN32)cc1 (single isomer, unassigned) [Compound 38]	12 mg/kg		
CCC1=C(N)C(=O)C2=C(C1=O)N1C[C@@H]3N[C@@H]3[C@]1(OC)[C@@H]2COC(N)=O [Compound 1, 6-demethyl-6-ethylmitomycin C]	6.7 mg/kg	38 mg/kg	3000 µM
CO[C@@]12[C@H](COC(N)=O)C3=C(C(=O)C(Cc4ccccc4)=C(N)C3=O)N1C[C@@H]1N[C@@H]12 [Compound 7, 6-benzyl-6-demethylmitomycin C]	18 mg/kg	> 50 mg/kg	2300 µM
CO[C@@]12[C@H](COC(N)=O)C3=C(C(=O)C(CC4=C(O)CC(C)(C)CC4=O)=C(N)C3=O)N1C[C@@H]1N[C@@H]12 [Compound 9]	8 mg/kg	30 mg/kg	1500 µM
CCOC(=O)C(C)(CC1=C(OC)C(=O)C2=C(C1=O)N1C[C@@H]3N[C@@H]3[C@]1(OC)[C@@H]2COC(N)=O)C(C)=O (stereo partly drawn) [Compound 10]			1600 µM
CCOC(=O)C1=C(C)OC2=C(C1)C(=O)C1=C(C2=O)[C@@H](COC(N)=O)[C@@]2(OC)[C@H]3N[C@H]3CN12 [Compound 12]	0.7 mg/kg	5.2 mg/kg	
CO[C@@]12[C@H](COC(N)=O)C3=C(C(=O)C4=C(OC5=C(C4)C(=O)CC(C)(C)C5)C3=O)N1C[C@@H]1N[C@@H]12 [Compound 13]	1.3 mg/kg	2.9 mg/kg	84 µM
CO[C@@]12[C@H](COC(N)=O)C3=C(C(=O)C4=C(OC5=C(C4)C(=O)CCC5)C3=O)N1C[C@@H]1N[C@@H]12 [Compound 14]	0.84 mg/kg	2.2 mg/kg	65 µM
CCC1=C(OC)C(=O)C2=C(C1=O)N1C[C@@H]3N[C@@H]3[C@]1(OC)[C@@H]2COC(N)=O [Compound 15, 6-demethyl-6-ethylmitomycin A]	2.8 mg/kg	8.2 mg/kg	
CCC1=C(OC)C(=O)C2=C(C1=O)N1C[C@H]3[C@H](N3C)[C@]1(O)[C@H]2COC(N)=O (stereo partly drawn) [Compound 16, 6-demethyl-6-ethylmitomycin B]	14 mg/kg	25 mg/kg	
CO[C@@]12[C@H](COC(N)=O)C3=C(C(=O)C4=C(OC(C)=C(C(=O)c5ccccc5)C4)C3=O)N1C[C@@H]1N[C@@H]12 [Compound 30]	5.8 mg/kg		
CO[C@@]12[C@H](COC(N)=O)C3=C(C(=O)C4=C(OC5=C(C4)C(=O)CC(C)C5)C3=O)N1C[C@@H]1N[C@@H]12 (stereo partly drawn) [Compound 37]	0.93 mg/kg		
